Laboratory results: patent US9315475B2 (MERCK SHARP & DOHME CORP., priority 2011, dated 2016)

These molecules were tested on HIV-1 (H9IIIB strain) (assay: Antiviral acute infection assay in cell culture (Spread)). Settings: HIV-1 H9IIIB infection of MT-4 human T-lymphoid cells in 10% FBS; mean of at least two independent experiments.
Assay type: cell-based
Text: Antiviral Assays in Cell Culture (“Spread”)
Acute Infection Assay (“Spread”) data were generated using HIV-1 (H9IIIB strain) infection of MT-4 human T-lymphoid cells in 10% FBS, and according to the methods disclosed by J. P. Vacca et al, “L-735,524: An orally bioavailable human immunodeficiency virus type 1 protease inhibitor,” Proc. Natl. Acad. Sci. USA, Vol. 91, pp. 4096-4100 (April 1994).

For O=C(C[C@@H](c1ccc(F)cc1)c1ccc(OC(F)(F)F)cc1)Nc1cccc(F)c1CC[C@@H]1CN[C@H](COC(=O)NCC(F)(F)F)CO1 [Example 159, [(3S,6R)-6-{2-[2-fluoro-6-({(3R)-3-(4-fluorophenyl)-3-[4-(trifluoro-methoxy)phenyl]propanoyl}amino)phenyl]ethyl}morpholin-3-yl] methyl (2,2,2-trifluoroethyl)carbamate], the EC50 was 380 nM.

Same assay, conditions: Human immunodeficiency virus 1, T-lymphoid, HIV-1 H9IIIB infection of MT-4 human T-lymphoid cells in 10% FBS; mean of at least two independent experiments

Point of comparison: O=C(CC(c1ccc(F)cc1)c1ccc(F)cc1)Nc1cccc(F)c1CC[C@@H]1CN[C@H](CNC(=O)OCC(F)(F)F)CO1 [Example 87, 2,2,2-trifluoroethyl ({(3R,6R)-6-[2-(2-{[3,3-bis(4-fluoro-phenyl)propanoyl]amino}-6-fluorophenyl)ethyl]morpholin-3-yl}methyl) carbamate], EC50 2200 nM. Against it:
- N[C@H](C(=O)Nc1cccc(F)c1CC[C@@H]1CN[C@H](CNC(=O)OCC(F)(F)F)CO1)C(c1ccc(F)cc1)c1ccc(F)cc1 [Example 88, 4-fluoro-β-(4-fluorophenyl)-N-(3-fluoro-2-{2-[(2R,5R)-5-({[(2,2,2-trifluoro-ethoxy)carbonyl]amino}methyl)morpholin-2-yl]ethyl}phenyl)-L-phenylalaninamide] — 4.9-fold lower, 450 nM
- O=C(CC(c1ccc(F)cc1)c1ccc(F)cc1)Nc1cncc(F)c1CC[C@@H]1CN[C@H](CNC(=O)OCC(F)(F)F)CO1 [Example 85, 2,2,2-trifluoroethyl ({(3R,6R)-6-[2-(3-{[3,3-bis(4-fluoro-phenyl)propanoyl]amino}-5-fluoropyridin-4-yl)ethyl]morpholin-3-yl}methyl)carbamate] — 25-fold lower, 87 nM
- COC(=O)N[C@H](C(=O)Nc1cccc(F)c1CC[C@@H]1CN[C@H](COC(N)=O)CO1)[C@@H](c1ccc(F)cc1)c1cccc(F)c1 [Example 118, (βS)—N-[2-(2-{(2R,5S)-5-[(Carbamoyloxy)methyl]morpholin-2-yl}ethyl)-3-fluorophenyl]-4-fluoro-β-(3-fluorophenyl)-Nα-(methoxycarbonyl)-L-phenylalaninamide] — 130-fold lower, 17 nM
- Cc1cc(C)n(CCNC(=O)OC[C@@H]2CO[C@H](CCc3c(F)cncc3NC(=O)CC(c3ccc(F)cc3)c3ccc(F)cc3)CN2)n1 [Example 172, {(3S,6R)-6-[2-(3-{[3,3-bis(4-fluoro-phenyl)propanoyl]amino}-5-fluoropyridin-4-yl)ethyl]morpholin-3-yl}methyl [2-(3,5-dimethyl-1H-pyrazol-1-yl)ethyl]carbamate] — 37-fold lower, 60 nM
- COC(=O)N[C@H](C(=O)Nc1cncc(F)c1CC[C@@H]1CN[C@H](COC(=O)NCC(F)(F)F)CO1)[C@@H](c1ccc(F)cc1)c1cccc(F)c1F [Example 302, (βS)-2,3-difluoro-β-(4-fluorophenyl)-N-(5-fluoro-4-{2-[(2R,5S)-5-({[(2,2,2-trifluoroethyl)carbamoyl]oxy}methyl)morpholin-2-yl]ethyl}pyridin-3-yl)-Nα-(methoxy-carbonyl)-L-phenylalaninamide] — 150-fold lower, 15 nM
- COC(=O)N[C@H](C(=O)Nc1cccc(F)c1CC[C@@H]1CN[C@H](COC(=O)NCC(F)(F)F)CO1)[C@@H](c1ccc(Cl)cc1)c1ccc2c(c1)OCO2 [Example 110, (βS)-β-1,3-Benzodioxol-5-yl-4-chloro-N-(3-fluoro-2-{2-[(2R,5S)-5-({[(2,2,2-trifluoroethyl)carbamoyl]oxy}methyl)morpholin-2-yl]ethyl}phenyl)-Nα-(methoxycarbonyl)-L-phenylalaninamide] — 320-fold lower, 6.9 nM
- N[C@H](C(=O)Nc1cncc(F)c1CC[C@@H]1CN[C@H](COC(=O)NCC(F)(F)F)CO1)[C@H](c1ccc(F)cc1)c1ccc(-c2cccnc2)cc1 [Example 224, (βS)-β-(4-fluorophenyl)-N-(5-fluoro-4-{2-[(2R,5S)-5-({[(2,2,2-trifluoro-ethyl)carbamoyl]oxy}methyl)morpholin-2-yl]ethyl}pyridin-3-yl)-4-pyridin-3-yl-L-phenylalaninamide] — 8.5-fold lower, 260 nM
- CC(C)C(NC(=O)OC[C@@H]1CO[C@H](CCc2c(F)cncc2NC(=O)CC(c2ccc(F)cc2)c2ccc(F)cc2)CN1)C(C)C [Example 186, {(3S,6R)-6-[2-(3-{[3,3-bis(4-fluoro-phenyl)propanoyl]amino}-5-fluoropyridin-4-yl)ethyl]morpholin-3-yl}methyl [2-methyl-1-(1-methylethyl)propyl] carbamate] — 33-fold lower, 66 nM
- CCc1nc(CNC(=O)OC[C@@H]2CO[C@H](CCc3c(F)cncc3NC(=O)CC(c3ccc(F)cc3)c3ccc(F)cc3)CN2)no1 [Example 174, {(3S,6R)-6-[2-(3-{[3,3-bis(4-fluoro-phenyl)propanoyl]amino}-5-fluoropyridin-4-yl)ethyl]morpholin-3-yl}methyl [(5-ethyl-1,2,4-oxadiazol-3-yl)methyl]carbamate] — 18-fold lower, 120 nM
- COC(=O)N[C@H](C(=O)Nc1cccc(F)c1CC[C@@H]1CN[C@H](COC(=O)NCC(F)(F)F)CO1)[C@@H](c1ccncc1)c1ccc(F)cc1 [Example 112, (βR)-4-Fluoro-N-(3-fluoro-2-{2-[(2R,5S)-5-({[(2,2,2-trifluoroethyl)carbamoyl]oxy}methyl)morpholin-2-yl]ethyl}phenyl)-Nα-(methoxycarbonyl)-β-pyridin-4-yl-L-phenylalaninamide] — 11-fold lower, 200 nM
- O=C(CC(c1ccc(F)cc1)c1ccc(F)cc1)Nc1cncc(F)c1CC[C@@H]1CN[C@H](COC(=O)NC2c3ccccc3C[C@H]2O)CO1 (stereo partly drawn) [Example 185, {(3S,6R)-6-[2-(3-{[3,3-bis(4-fluoro-phenyl)propanoyl]amino}-5-fluoropyridin-4-yl)ethyl]morpholin-3-yl}methyl [(2R)-2-hydroxy-2,3-dihydro-1H-inden-1-yl]carbamate] — 32-fold lower, 68 nM

What follows are molecules tested against T1, wildtype HIV-1 protease (Human immunodeficiency virus type 1 group M subtype B, UniProt P04585) (assay: Assay for inhibition of microbial expressed HIV protease (Pepcleav)). Settings: wild type HIV-1 protease expressed in E. coli, peptide substrate, pH 5.5; mean of at least two independent experiments; read-out: Pepcleav.
T1 construct: the wildtype HIV-1 protease (which was expressed in Escherichia coli); made in house; host or cells: Escherichia coli
Assay type: biochemical
Outline: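 Cleavage of 400 μM peptide substrate Val-Ser-Gln-Asn-(βnaphthyl)Ala-Pro-Ile-Val by 20 pM wild-type enzyme (E. coli-expressed) ran 1 h at 30 °C after 30 min inhibitor preincubation, pH 5.5 acetate buffer. Inhibition derived from product peak area by C18 LC with multiple-reaction-monitoring MS after formic acid quench.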

Point of comparison: COC(=O)N[C@H](C(=O)Nc1cnccc1CC[C@@H]1CN[C@H](COC(=O)NCc2ccc(F)cc2)CO1)C(c1ccccc1)c1ccccc1 [Example 33, N-(4-{2-[(2R,5S)-5-({[(4-fluorobenzyl)carbamoyl]oxy}methyl)morpholin-2-yl]ethyl}pyridin-3-yl)-Nα-(methoxycarbonyl)-β-phenyl-L-phenylalaninamide], IC50 5.7 nM. Against it:
- COC(=O)N[C@H](C(=O)Nc1cccc(F)c1CC[C@@H]1CN[C@H](COC(=O)NCC(F)(F)F)CO1)[C@@H](c1ccc(Cl)c(F)c1)C1CCOCC1 [Example 129, (βR)-4-Chloro-3-fluoro-N-(3-fluoro-2-{2-[(2R,5S)-5-({[(2,2,2-trifluoroethyl)carbamoyl]oxy}methyl)morpholin-2-yl]ethyl}phenyl)-Nα-(methoxycarbonyl)-β-(tetrahydro-2H-pyran-4-yl)-L-phenylalaninamide] — 1.5-fold higher, 8.6 nM
- COC(=O)N[C@H](C(=O)Nc1ccccc1CC[C@@H]1CN[C@H](C(=O)NNc2ccccc2)CO1)C(c1ccccc1)c1ccccc1 [Example 9, Nα-(methoxycarbonyl)-β-phenyl-N-[2-(2-{(2R,5S)-5-[(2-phenylhydrazinyl)carbonyl]morpholin-2-yl}ethyl)phenyl]-L-phenylalaninamide] — 15-fold higher, 88 nM
- COC(=O)N[C@H](C(=O)Nc1ccccc1CC[C@@H]1CN[C@H](COC(=O)NCC(F)(F)F)CO1)C(c1ccccc1)c1ccccc1 [Example 17, methyl N-[(1S)-1-benzhydryl-2-oxo-2-[[2-[2-[(2R,5S)-5-(2,2,2-trifluoroethylcarbamoyloxymethyl)morpholin-2-yl]ethyl]phenyl]amino]ethyl]carbamate] — 4.7-fold higher, 27 nM
- CC(C)(CO)NC(=O)OC[C@@H]1CO[C@H](CCc2c(F)cncc2NC(=O)[C@@H](N)C(c2ccc(F)cc2)c2ccc(F)cc2)CN1 [Example 218, 4-fluoro-N-(5-fluoro-4-{2-[(2R,5S)-5-({[(2-hydroxy-1,1-dimethylethyl)carbamoyl]oxy}methyl)morpholin-2-yl]ethyl}pyridin-3-yl)-β-(4-fluorophenyl)-L-phenylalaninamide] — 2.7-fold lower, 2.1 nM
- N[C@H](C(=O)Nc1cccc(F)c1CC[C@@H]1CN[C@H](COC(=O)NCc2ccncc2)CO1)C(c1ccc(F)cc1)c1ccc(F)cc1 [Example 198, 4-fluoro-β-(4-fluorophenyl)-N-(3-fluoro-2-{2-[(2R,5S)-5-({[(pyridin-4-ylmethyl)carbamoyl]oxy}methyl)morpholin-2-yl]ethyl}phenyl)-L-phenylalaninamide] — 7.7-fold higher, 44 nM
- COC(=O)N[C@H](C(=O)Nc1ccccc1CC[C@@H]1CN[C@H](CNS(=O)(=O)c2cccc(C(F)(F)F)n2)CO1)C(c1ccccc1)c1ccccc1 [Example 46, methyl N-[(1S)-1-benzhydryl-2-oxo-2-[[2-[2-[(2R,5R)-5-[[[6-(trifluoromethyl)-2-pyridyl]sulfonylamino]methyl]morpholin-2-yl]ethyl]phenyl]amino]ethyl]carbamate] — 8.8-fold higher, 50 nM
- COC(=O)N[C@H](C(=O)Nc1ccccc1CC[C@@H]1CN[C@H](CNS(=O)(=O)c2ccc(N)cc2)CO1)C(c1ccccc1)c1ccccc1 [Example 49, N-(2-{2-[(2R,5R)-5-({[(4-aminophenyl)sulfonyl]amino}methyl)morpholin-2-yl]ethyl}phenyl)-Nα-(methoxy-carbonyl)-β-phenyl-L-phenylalaninamide] — 16-fold higher, 94 nM
- COC(=O)N[C@H](C(=O)Nc1ccccc1CC[C@@H]1CN[C@H](CNC(=O)Nc2cccnn2)CO1)C(c1ccccc1)c1ccccc1 [Example 41, methyl N-[(1S)-1-benzhydryl-2-oxo-2-[[2-[2-[(2R,5R)-5-[(pyridazin-3-ylcarbamoyl-amino)methyl]morpholin-2-yl]ethyl]phenyl]amino]ethyl] carbamate] — 2-fold lower, 2.9 nM
